28 compounds from US10676471B2, “Cycloalkyl-linked diheterocycle derivatives” (Pfizer Inc., priority 2014, dated 2020) can be followed below.

The subject of the assay is BT20 Cell. Nature of the assay: Cancer Cell Lysate Total L-Glutamate Assay. It counts as cell-based. Conditions: total L-glutamate in cell lysate, BT20 cells, 2 hour incubation with test compound. The method in brief: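 BT20 and other cancer lines at ~80% confluence were given fresh L-glutamine-containing medium, then treated with serially diluted compound (0.5% DMSO) for 2 hours at 37° C. Washed cells were lysed by freeze-thaw and sonication. Lysate glutamate was measured via glutamate oxidase/HRP/50 μM Amplex Red fluorescence (ex 530-560, em 585 nm); IC50 by four-parameter logistic fit.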

A word on the IC50: it is the concentration needed to halve the response being measured. Compound `Cc1ccc(CC(=O)Nc2nnc(C[C@H]3C[C@@H](c4nnc(NC(=O)Cc5ccccn5)s4)C3)s2)nc1` (single isomer, unassigned) [Example 111, 2-(5-methylpyridin-2-yl)-N-{5-[(cis-3-{5-[(pyridin-2-ylacetyl)amino]-1,3,4-thiadiazol-2-yl}cyclobutyl)methyl]-1,3,4-thiadiazol-2-yl}acetamide] displayed an IC50 (Homo sapiens, BT-20, 2 h) of 1.2 nM.

Under “Homo sapiens, BT-20, 2 h”, `O=C(Cc1ccccc1)Nc1ccc(C[C@H]2C[C@@H](c3nnc(NC(=O)Cc4ccccn4)s3)C2)nn1` (single isomer, unassigned) [Example 118, 2-phenyl-N-{6-[(cis-3-{5-[(pyridin-2-ylacetyl)amino]-1,3,4-thiadiazol-2-yl}cyclobutyl)methyl]pyridazin-3-yl}acetamide] returned an IC50 of 0.2 nM.

For the setting “Homo sapiens, BT-20, 2 h”, `CC(C)C(=O)Nc1nnc([C@H]2CC[C@@H](Cc3ccc(NC(=O)Cc4ccccn4)nn3)C2)s1` [Example 120, 2-methyl-N-{5-[(1S,3R)-3-({6-[(pyridin-2-ylacetyl)amino]pyridazin-3-yl}methyl)cyclopentyl]-1,3,4-thiadiazol-2-yl}propanamide] came in with an IC50 of 0.4 nM. Against the preceding compound, the IC50 is about 2-fold higher.

Where the note is “Homo sapiens, BT-20, 2 h”, `CC(=O)Nc1nnc(CC2CCC(c3nnc(NC(=O)Cc4ccccn4)s3)C2)s1` (racemic) [Example 55, (rac)-N-{5-[(cis)-3-{[5-(acetylamino)-1,3,4-thiadiazol-2-yl]methyl}cyclopentyl]-1,3,4-thiadiazol-2-yl}-2-(pyridin-2-yl)acetamide] had an IC50 of 391 nM.

Regarding `O=C(Cc1ccccn1)Nc1ccc(CC2CCC(c3nnc(NC(=O)Cc4ccccn4)s3)C2)nn1` (racemic) [Example 70, (rac)-2-(pyridin-2-yl)-N-{5-[(cis)-3-({6-[(pyridin-2-ylacetyl)amino]pyridazin-3-yl}methyl)cyclopentyl]-1,3,4-thiadiazol-2-yl}acetamide], for the setting “Homo sapiens, BT-20, 2 h”, the midpoint of inhibition, the IC50, lay at 0.2 nM.

Consider `Cn1ccc(CC(=O)Nc2nnc(C3CC4(C3)CC(c3nnc(NC(=O)Cc5ccn(C)n5)s3)C4)s2)n1` (racemic) [Example 96, (rac)-N,N-(spiro[3.3]heptane-2,6-diyldi-1,3,4-thiadiazole-5,2-diyl)bis[2-(1-methyl-1H-pyrazol-3-yl)acetamide]], for which the IC50 (Homo sapiens, BT-20, 2 h) came out at 0.3 nM. This IC50 and that of the compound before are within 1.5-fold of each other.

In turn, `O=C(Cc1ccccn1)Nc1ccc([C@H]2C[C@H](Cc3nnc(NC(=O)Cc4ccccn4)s3)C2)nn1` (single isomer, unassigned) [Example 123, 2-(pyridin-2-yl)-N-{5-[(trans-3-{6-[(pyridin-2-ylacetyl)amino]pyridazin-3-yl}cyclobutyl)methyl]-1,3,4-thiadiazol-2-yl}acetamide] gave an IC50 (Homo sapiens, BT-20, 2 h) of 1.8 nM.

`CC(=O)Nc1nnc(C[C@@H]2CC[C@H](c3nnc(NC(=O)Cc4cncnc4)s3)C2)s1` (single isomer, unassigned) [Example 58, N-{5-[(cis)-3-{[5-(acetylamino)-1,3,4-thiadiazol-2-yl]methyl}cyclopentyl]-1,3,4-thiadiazol-2-yl}-2-(pyrimidin-5-yl)acetamide] displayed a 50% inhibitory concentration (IC50) (Homo sapiens, BT-20, 2 h) of 276 nM. This IC50 is about 150-fold higher than that of the compound before.

With `O=C(Cc1ccccn1)Nc1ccc(C[C@@H]2CC[C@H](c3nnc(Nc4ccccn4)s3)C2)nn1` (single isomer, unassigned) [Example 75, 2-(pyridin-2-yl)-N-[6-({(cis)-3-[5-(pyridin-2-ylamino)-1,3,4-thiadiazol-2-yl]cyclopentyl}methyl)pyridazin-3-yl]acetamide], the IC50 (Homo sapiens, BT-20, 2 h) came to 1.1 nM.

`CC(=O)Nc1nnc(C2CCC(Cc3nnc(NC(=O)Cc4ccccc4)s3)C2)s1` (racemic) [Example 15, N-[5-({(cis)-3-[5-(acetylamino)-1,3,4-thiadiazol-2-yl]cyclopentyl}methyl)-1,3,4-thiadiazol-2-yl]-2-phenylacetamide] showed an IC50 (Homo sapiens, BT-20, 2 h) of 10.6 nM. This IC50 is about 9.6-fold higher than that of the compound before.

With `O=C(Cc1ccccn1)Nc1ccc(C[C@H]2CC[C@@H](c3nnc(NC(=O)Cc4ccccn4)s3)C2)nn1` (single isomer, unassigned) [Example 71, 2-(pyridin-2-yl)-N-{5-[(cis)-3-({6-[(pyridin-2-ylacetyl)amino]pyridazin-3-yl}methyl)cyclopentyl]-1,3,4-thiadiazol-2-yl}acetamide], the IC50 (Homo sapiens, BT-20, 2 h) was determined as 2.7 nM.

In turn, `CC(=O)Nc1nnc(C[C@H]2C[C@H](c3nnc(NC(C)=O)s3)C2)s1` (single isomer, unassigned) [Example 63, N-[5-({trans-3-[5-(acetylamino)-1,3,4-thiadiazol-2-yl]cyclobutyl}methyl)-1,3,4-thiadiazol-2-yl]acetamide] came in with an IC50 (Homo sapiens, BT-20, 2 h) of 110 nM.

Under “Homo sapiens, BT-20, 2 h”, `CC(C)C(=O)Nc1nnc(C2CC3(CC(c4nnc(NC(=O)Cc5ccccn5)s4)C3)C2)s1` (racemic) [Example 135, 2-methyl-N-[5-(6-{5-[(pyridin-2-ylacetyl)amino]-1,3,4-thiadiazol-2-yl}spiro[3.3]hept-2-yl)-1,3,4-thiadiazol-2-yl]propanamide] gave an IC50 of 2.1 nM.

Consider `CC(=O)Nc1nnc(C[C@H]2CCC(c3nnc(NC(=O)Cc4ccncn4)s3)C2)s1` (single isomer, unassigned) [Example 21, N-{5-[(cis)-3-{[5-(acetylamino)-1,3,4-thiadiazol-2-yl]methyl}cyclopentyl]-1,3,4-thiadiazol-2-yl}-2-(pyrimidin-4-yl)acetamide], for which the half-maximal inhibitory concentration (IC50) (Homo sapiens, BT-20, 2 h) is > 6650 nM.

Under “Homo sapiens, BT-20, 2 h”, `O=C(Cc1ccccn1)Nc1nnc([C@H]2CC3(C[C@H](c4nnc(NC(=O)Cc5ccccn5)s4)C3)C2)s1` (single isomer, unassigned) [Example 99, N,N′-(spiro[3.3]heptane-2,6-diyldi-1,3,4-thiadiazole-5,2-diyl)bis[2-(pyridin-2-yl)acetamide]] showed an IC50 of 0.3 nM. This lies in the sub-nanomolar range.

Turning to `Cn1ccc(CC(=O)Nc2nnc([C@H]3CC4(C[C@H](c5nnc(NC(=O)Cc6ccn(C)n6)s5)C4)C3)s2)n1` (stereo partly shown) [Example 98, N,N′-(spiro[3.3]heptane-2,6-diyldi-1,3,4-thiadiazole-5,2-diyl)bis[2-(1-methyl-1H-pyrazol-3-yl)acetamide]], the IC50 came out at 0.5 nM.

Under “Homo sapiens, BT-20, 2 h”, `CC(=O)Nc1ccc(C[C@@H]2CC[C@H](c3nnc(NC(=O)Cc4ccccn4)s3)C2)nn1` (single isomer, unassigned) [Example 69, N-{5-[(cis)-3-{[6-(acetylamino)pyridazin-3-yl]methyl}cyclopentyl]-1,3,4-thiadiazol-2-yl}-2-(pyridin-2-yl)acetamide] gave an IC50 of 2.5 nM.

Where the note is “Homo sapiens, BT-20, 2 h”, `Nc1nnc(CC2CC[C@H](c3nnc(NC(=O)Cc4ccccc4)s3)C2)s1` (single isomer, unassigned) [Example 64, N-(5-{(cis)-3-[(5-amino-1,3,4-thiadiazol-2-yl)methyl]cyclopentyl}-1,3,4-thiadiazol-2-yl)-2-phenylacetamide] came in with an IC50 of 71.2 nM.

`O=C(Cc1ccccn1)Nc1ccc(C[C@H]2CC[C@@H](c3nnc(NC(=O)C[C@H]4CCCO4)s3)C2)nn1` (single isomer, unassigned) [Example 131] yielded an IC50 (Homo sapiens, BT-20, 2 h) of 3.1 nM.

The compound `O=C(Cc1ccccn1)Nc1nnc([C@@H]2CC[C@H](Cc3nnc(NC(=O)c4ccccc4F)s3)C2)s1` (racemic) [Example 144, (rac)-2-fluoro-N-(5-{[(cis)-3-{5-[(pyridin-2-ylacetyl)amino]-1,3,4-thiadiazol-2-yl}cyclopentyl]methyl}-1,3,4-thiadiazol-2-yl)benzamide] gave an IC50 (Homo sapiens, BT-20, 2 h) of 0.7 nM.

`O=C(Cc1ccccn1)Nc1ccc(C[C@@H]2CC[C@H](c3nnc(NC(=O)c4ccccn4)s3)C2)nn1` (single isomer, unassigned) [Example 117, N-{5-[(cis)-3-({6-[(pyridin-2-ylacetyl)amino]pyridazin-3-yl}methyl)cyclopentyl]-1,3,4-thiadiazol-2-yl}pyridine-2-carboxamide]: the midpoint of inhibition (Homo sapiens, BT-20, 2 h), the IC50, lay at 1.4 nM.

On to `CCC(=O)Nc1nnc([C@H]2C[C@H](Cc3nnc(NC(=O)Cc4ccccn4)s3)C2)s1` (single isomer, unassigned) [Example 106, N-{5-[trans-3-({5-[(pyridin-2-ylacetyl)amino]-1,3,4-thiadiazol-2-yl}methyl)cyclobutyl]-1,3,4-thiadiazol-2-yl}propanamide], for which the IC50 (Homo sapiens, BT-20, 2 h) turned out to be 13.7 nM.

As for `O=C(Cc1ccccn1)Nc1nnc(C[C@H]2CC[C@@H](c3nnc(NC(=O)Cc4ccccn4)s3)C2)s1` (racemic) [Example 152, (rac)-2-(pyridin-2-yl)-N-(5-{[(cis)-3-{5-[(pyridin-2-ylacetyl)amino]-1,3,4-thiadiazol-2-yl}cyclopentyl]methyl}-1,3,4-thiadiazol-2-yl)acetamide], the IC50 (Homo sapiens, BT-20, 2 h) was found to be 2.8 nM.

The compound `CC(=O)Nc1nnc(C2CC3(C2)CC(c2nnc(NC(C)=O)s2)C3)s1` (racemic) [Example 141, N,N′-(spiro[3.3]heptane-2,6-diyldi-1,3,4-thiadiazole-5,2-diyl)diacetamide] came in with an IC50 (Homo sapiens, BT-20, 2 h) of 298 nM.

Under “Homo sapiens, BT-20, 2 h”, `CCNc1nnc([C@@H]2CC[C@H](Cc3ccc(NC(=O)Cc4ccccn4)nn3)C2)s1` (single isomer, unassigned) [Example 101, N-[6-({(cis)-3-[5-(ethylamino)-1,3,4-thiadiazol-2-yl]cyclopentyl}methyl)pyridazin-3-yl]-2-(pyridin-2-yl)acetamide] gave an IC50 of 339 nM.

Compound `O=C(Cc1ccccn1)Nc1ccc(C2CC3(C2)CC(c2ccc(NC(=O)Cc4ccccn4)nn2)C3)nn1` (racemic) [Example 25, N,N′-(spiro[3.3]heptane-2,6-diyldipyridazine-6,3-diyl)bis[2-(pyridin-2-yl)acetamide]] registered an IC50 (Homo sapiens, BT-20, 2 h) of 1 nM.

Regarding `CC(=O)Nc1nnc([C@H]2C[C@H](Cc3ccc(NC(=O)Cc4ccccn4)nn3)C2)s1` (single isomer, unassigned) [Example 115, N-[6-({trans-3-[5-(acetylamino)-1,3,4-thiadiazol-2-yl]cyclobutyl}methyl)pyridazin-3-yl]-2-(pyridin-2-yl)acetamide], under “Homo sapiens, BT-20, 2 h”, the IC50 amounted to 2 nM.

Under “Homo sapiens, BT-20, 2 h”, `Cn1cnc(CC(=O)Nc2nnc([C@H]3CC[C@@H](Cc4ccc(NC(=O)Cc5ccccn5)nn4)C3)s2)c1` (relative stereo) [Example 128, 2-(1-methyl-1H-imidazol-4-yl)-N-{5-[(cis)-3-({6-[(pyridin-2-ylacetyl)amino]pyridazin-3-yl}methyl)cyclopentyl]-1,3,4-thiadiazol-2-yl}acetamide] had an IC50 of 2 nM.
